Reference: patent US9779901B2, “High temperature material compositions for high temperature thermal cutoff devices” (Therm-O-Disc, Incorporated, priority 2008, dated 2017)
Like-named read-outs stand apart in the source and are kept apart here.

Legend:
[1] = estimated melting point temperature ranges of candidate organic compounds (Table 2); some compounds have several values, partly in parentheses, because analytic techniques differ; cited from earlier work
[2] = 20° C.; cited from earlier work

Row | Compound | Melting Point [°C] | Melting Point [1] | Vapor Pressure [2]
1 | NNc1nnc(Cc2ccncc2)c2ccccc12 [Example 149] | 261 to 264 | 261-264° ° C. | –
2 | c1ccc(-c2nc3ncncc3[nH]2)cc1 [Example 150] | 261 to 262 | 261-262° ° C. | –
3 | O=c1c2ccccc2oc2nc3ccccc3nc12 [Example 155] | 261 | 261° ° C. | –
4 | O=C1c2ccccc2-c2oc(=O)c3ccccc3c21 [Example 156] | 261 to 262 | 261-262° ° C. | –
5 | Nc1nnc(N)n1N [Example 158] | 262 to 263 | 262-263° ° C. | –
6 | Cc1[nH]nc2c1N(c1ccccc1)C(=O)CC(=O)N2C [Example 159] | 262 | 262° ° C. | –
7 | O=C1CC(=O)N(c2ccccc2)C(=O)N1 [Example 160] | 262 | 262° ° C. | –
8 | COc1ncnc2nc[nH]c12 [Example 161] | 262 to 263 | 262-263° ° C. | –
9 | O=C(O)c1cccc2c1-c1ccc([N+](=O)[O-])cc1C2=O [Example 163] | 262 to 262.5 | 262-262.5° ° C. | –
10 | O=c1c2ccccc2[nH]c2c([N+](=O)[O-])cccc12 [Example 164] | 262 | 262° ° C. | –
11 | CC(=O)N[C@@H]1CCC[C@H](NC(C)=O)C1 [Example 166] | 262 to 264 | 262-264° ° C. | –
12 | NC(=O)C(CC(C(N)=O)C(N)=O)C(N)=O [Example 168] | 263 to 265 | 263-265° ° C. | –
13 | Cc1cc(=O)oc2cccc(O)c12 [Example 169] | 263 | 263° ° C. | –
14 | O=[N+]([O-])c1c2ccccc2c([N+](=O)[O-])c2ccccc12 [Example 171] | 263 | 263° ° C. | –
15 | Oc1cc2cc3c(ccc4ccccc43)cc2c2ccccc12 [Example 173] | 263 to 264 | 263-264° ° C. | –
16 | COc1c(O)cc2c(c1OC)-c1ccc(OC)c(=O)cc1C(NC=O)CC2 (centres unmarked) [Example 175] | 263 to 267 | 263-267° ° C. | –
17 | CC(=O)N[C@H]1[C@@H](OCc2ccccc2)O[C@@H]2CO[C@H](c3ccccc3)O[C@H]2[C@@H]1O [Example 176] | 263 to 264 | 263-264° ° C. | –

Row | Compound | Melting Point [°C] | Melting Point [1] | Vapor Pressure [2]
18 | NC(=O)c1c2ccccc2nc2ccccc12 [Example 178] | 263 to 264 | 263-264° ° C. | –
19 | O=[N+]([O-])c1ccc(NN=Cc2ccccn2)cc1 [Example 181] | 264 | 264° ° C. | –
20 | O=C1N=C(NO)c2ccccc21 [Example 182] | 264 to 266 | 264-266° ° C. | –
21 | O=c1cc2[nH]c3ccccc3oc-2cc1=O [Example 185] | 264 to 265 | 264-265° ° C. | –
22 | CCCCCCCCn1cnc2c(=S)nc[nH]c21 [Example 188] | 264 to 266 | 264-266° ° C. | –
23 | c1ccc(-c2n[nH]c(-c3ccccc3)c2-c2ccccc2)cc1 [Example 189] | 265 | 265° ° C. | –
24 | CC1(C)CC2(CC(C)(C)NC(=O)N2)NC(=O)N1 [Example 190] | 265 to 268 | 265-268° ° C. | –
25 | NC(=O)c1c2c(nc3ccccc13)CCCC2 [Example 191] | 265 to 267 | 265-267° ° C. | –
26 | Cn1c(=O)c2ccn(C)c2n(C)c1=O [Example 192] | 265 to 266 | 265-266° ° C. | –
27 | N#Cc1ccc(Nc2ccc(C#N)cc2)cc1 [Example 194] | 265 to 266 | 265-266° ° C. | –
28 | Nc1cc(N)n(N)c(=S)n1 [Example 197] | 265 | 265° ° C. | –
29 | Nc1cccc2c1C(=O)c1c(N)cccc1C2=O [Example 198] | 265 | 265° ° C. | –
30 | Nc1ccc2cc([N+](=O)[O-])ccc2n1 [Example 201] | 265 | 265° ° C. | –
31 | Cc1ccc2cnc(O)cc2c1 [Example 204] | 265 | 265° ° C. | –
32 | Cc1nc2c(C)c(C)c(C)c(C)c2[nH]1 [Example 209] | 265 | 265° ° C. | –
33 | OCC(CO)(CO)CO [pentaerythritol, 2,2-Bis(hydroxymethyl)-1,3-propanediol] | – | – | <1 mmHG (20° C.)
